Experimental data from paper PMC8915576 (Frontiers in Pain Research, 2021).
Like-named read-outs stand apart in the source and are kept apart here.

Assays:
[1] = system: MOPr-VACC inhibition in DRG neurons; format: cell-based, mouse
MOPr = molecular target: T1, MOPr (Mus musculus, UniProt P42866); format: cell-based
T1 construct: expressed in transfected cells; host or cells: HEK293

[2] = molecular target: MOPr (mMOR-Venus) / βarr1-luciferase (Mus musculus, UniProt P42866); experiment: cell-based; format: cell-based
Chain of MOPr (mMOR-Venus) / βarr1-luciferase (P42866 whole entry, one chain of several): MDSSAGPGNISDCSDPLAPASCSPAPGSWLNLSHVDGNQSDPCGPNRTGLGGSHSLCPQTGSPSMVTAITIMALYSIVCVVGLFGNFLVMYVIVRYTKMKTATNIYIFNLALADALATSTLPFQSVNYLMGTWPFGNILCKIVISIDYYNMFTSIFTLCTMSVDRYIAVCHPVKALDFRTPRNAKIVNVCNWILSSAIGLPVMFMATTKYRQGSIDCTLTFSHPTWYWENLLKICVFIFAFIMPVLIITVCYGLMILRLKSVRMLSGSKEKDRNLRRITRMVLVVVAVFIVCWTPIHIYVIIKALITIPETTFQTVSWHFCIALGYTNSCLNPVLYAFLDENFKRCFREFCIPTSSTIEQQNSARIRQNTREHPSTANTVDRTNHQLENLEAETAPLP

[3] = molecular target: FAP-tagged MOPr in HEK cells (Homo sapiens, UniProt P35372); experiment: cell-based; format: cell-based; conditions: for Emax: Emax (% background), internalization
Chain of FAP-tagged MOPr in HEK cells (P35372 whole entry): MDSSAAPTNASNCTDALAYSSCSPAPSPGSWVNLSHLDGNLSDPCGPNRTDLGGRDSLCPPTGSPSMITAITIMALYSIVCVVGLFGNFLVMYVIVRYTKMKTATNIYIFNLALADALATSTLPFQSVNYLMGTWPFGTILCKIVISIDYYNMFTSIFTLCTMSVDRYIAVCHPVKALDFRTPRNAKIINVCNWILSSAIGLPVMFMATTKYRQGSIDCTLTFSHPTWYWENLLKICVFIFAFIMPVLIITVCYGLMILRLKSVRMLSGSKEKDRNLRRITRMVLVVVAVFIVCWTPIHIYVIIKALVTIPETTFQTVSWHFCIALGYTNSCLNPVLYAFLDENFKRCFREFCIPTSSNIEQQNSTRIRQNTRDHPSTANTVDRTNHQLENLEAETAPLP

[4] = molecular target: MOPr (mMOR-Venus) / Gαi-luciferase (Mus musculus, UniProt P42866); experiment: cell-based; format: cell-based
Chain of MOPr (mMOR-Venus) / Gαi-luciferase (P63096 whole entry): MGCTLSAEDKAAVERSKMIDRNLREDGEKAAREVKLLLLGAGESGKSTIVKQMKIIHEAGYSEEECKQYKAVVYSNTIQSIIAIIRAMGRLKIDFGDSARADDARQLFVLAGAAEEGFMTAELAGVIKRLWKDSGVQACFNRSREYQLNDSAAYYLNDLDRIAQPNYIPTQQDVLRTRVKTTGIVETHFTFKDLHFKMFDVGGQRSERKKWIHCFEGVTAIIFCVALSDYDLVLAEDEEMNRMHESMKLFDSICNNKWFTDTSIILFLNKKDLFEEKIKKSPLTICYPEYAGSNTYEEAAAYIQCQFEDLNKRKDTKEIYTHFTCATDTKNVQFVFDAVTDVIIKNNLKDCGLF
Chain of MOPr (mMOR-Venus) / Gαi-luciferase (P42866 whole entry): as the sequence (P42866 whole entry, one chain of several) above
Chain of MOPr (mMOR-Venus) / Gαi-luciferase (P59768 whole entry, further chain): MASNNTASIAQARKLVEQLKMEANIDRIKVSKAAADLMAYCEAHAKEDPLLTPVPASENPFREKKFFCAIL
Chain of MOPr (mMOR-Venus) / Gαi-luciferase (P62873 whole entry, further chain): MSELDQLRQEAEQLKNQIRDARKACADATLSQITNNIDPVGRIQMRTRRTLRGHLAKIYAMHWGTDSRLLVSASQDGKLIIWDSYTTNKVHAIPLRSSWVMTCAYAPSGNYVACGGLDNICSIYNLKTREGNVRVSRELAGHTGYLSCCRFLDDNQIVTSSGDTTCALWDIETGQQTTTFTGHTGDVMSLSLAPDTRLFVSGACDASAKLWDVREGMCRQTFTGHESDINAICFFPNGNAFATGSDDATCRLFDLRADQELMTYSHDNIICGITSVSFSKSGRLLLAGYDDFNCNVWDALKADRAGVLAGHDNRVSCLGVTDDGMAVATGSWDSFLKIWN

[5] = molecular target: MOPr (mMOR-Venus) / βarr2-luciferase (Mus musculus, UniProt P42866); experiment: cell-based
Chain of MOPr (mMOR-Venus) / βarr2-luciferase (P32121 whole entry): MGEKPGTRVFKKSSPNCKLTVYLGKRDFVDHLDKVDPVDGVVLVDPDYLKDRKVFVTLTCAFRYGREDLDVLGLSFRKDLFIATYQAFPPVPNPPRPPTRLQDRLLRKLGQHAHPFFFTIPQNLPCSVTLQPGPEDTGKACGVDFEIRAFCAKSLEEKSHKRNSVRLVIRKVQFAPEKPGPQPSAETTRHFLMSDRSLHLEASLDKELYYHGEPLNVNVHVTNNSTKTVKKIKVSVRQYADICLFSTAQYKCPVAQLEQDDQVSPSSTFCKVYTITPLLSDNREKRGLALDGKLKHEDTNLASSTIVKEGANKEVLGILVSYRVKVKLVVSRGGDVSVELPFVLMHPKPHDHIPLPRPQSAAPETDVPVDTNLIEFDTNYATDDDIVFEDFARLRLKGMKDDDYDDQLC
Chain of MOPr (mMOR-Venus) / βarr2-luciferase (P42866 whole entry): as the sequence (P42866 whole entry, one chain of several) above

VACCs in DRG neurons = experiment: Voltage-dependent component of agonist-VACC inhibition (high-voltage pre-pulse); format: cell-based, mouse; conditions: normalized to each agonist's inhibition
[6] = system: MOPr-VACC inhibition in dorsal root ganglia (DRG) neurons; experiment: cells; format: cell-based, mouse; conditions: for IC50: read-out: IC50, VACC inhibition; for Emax: read-out: Emax (% inhibition), VACC inhibition
drug-seeking behavior = experiment: Intravenous self-administration (IVSA), FR10 schedule; format: in vivo, Sprague–Dawley rats; conditions: for number of reinforcers obtained vs saline: FR10, rats
[7] = system: carrageenan-induced thermal hyperalgesia; experiment: Thermal withdrawal thresholds (Hargreaves) after i.pl. carrageenan; format: in vivo, mouse
drug preference = experiment: Conditioned place preference in pain-naive mice; format: in vivo, mouse
thermal nociception = experiment: Thermal withdrawal thresholds (Hargreaves) after i.pl. vehicle; format: in vivo, mouse; conditions: 3 mg/kg i.pl., mice
[8] = system: carrageenan-induced place aversion; experiment: Carrageenan-induced conditioned place aversion; format: in vivo, mouse; conditions: 1 mg/kg i.pl., male mice
[9] = system: VACCs in DRG neurons lacking βarr1; experiment: VACC inhibition in DRG neurons of βarr1-knockout mice; format: cell-based, mouse; conditions: βarr1-knockout vs WT DRG neurons; NKTR-181 30 μM
[10] = molecular target: T2, MOR (recombinant human receptor) (Homo sapiens, UniProt P35372); format: binding; conditions: calculated as t1/2 = 0.69/koff
T2 construct: host or cells: CHO-K1 membranes
T2 sequence (P35372 whole entry): as the sequence (P35372 whole entry) above

[11] = molecular target: Mu opioid receptor (MOPr) of the competitive binding assays (UniProt P42866)
Chain of Mu opioid receptor (MOPr) of the competitive binding assays (P42866 whole entry, the tested form may be a part): as the sequence (P42866 whole entry, one chain of several) above

[12] = molecular target: T3, mMOR-Venus (mu opioid receptor, Venus-tagged) (mouse (from the label mMOR), UniProt P42866 1-398); experiment: FRET or BRET; live HEK293 cells co-transfected with mMOR-Venus (acceptor) and Renilla Luciferase8-tagged β-arrestin-1, β-arrestin-2 or Gαi (donor; Gαi with untagged Gβγ fusion); agonist added at 0 nM-100 μM (DAMGO, NKTR-181, oxycodone, morphine, fentanyl); coelenterazine h 4.5 μM; 30°C; netBRET as percent of the maximum DAMGO response, four-parameter fit; conditions: partners not purified
T3 construct: mu opioid receptor (MOPr), printed as mMOR; BRET acceptor; 'm' in mMOR is read as mouse; also called MOPr-venus; MOPr; source: HEK293, transfected (FuGENE 6), in live cells
T3 sequence (P42866 whole entry, the tested form may be a part): as the sequence (P42866 whole entry, one chain of several) above

T1 sequence (P42866 whole entry): as the sequence (P42866 whole entry, one chain of several) above

C[C@@H](NC(=O)[C@@H](N)Cc1ccc(O)cc1)C(=O)NCC(=O)N(C)[C@@H](Cc1ccccc1)C(=O)NCCO [DAMGO, [D-Ala^2, N-MePhe^4, Gly-ol]-enkephalin]
rapid desensitization (loss of VACC inhibition) [1]: greater desensitization than NKTR-181
Bias factor Gαi vs βarr1 (MOPr): Unbiased
Bias factor Gαi vs βarr2 (MOPr): Unbiased
Bias factor βarr1 vs βarr2 (MOPr): Unbiased
σ (transduction coefficient), β-arr1 recruitment [2]: 0
Emax ([3]; HEK293, read-out: 30 min): 78 ± 6%
Emax ([3]; HEK293, read-out: 60 min): 72 ± 7%
σ (transduction coefficient), Gαi recruitment [4]: 0
σ (transduction coefficient), β-arr2 recruitment [5]: 0
voltage-dependent component of VACC inhibition (VACCs in DRG neurons): predominantly inhibit VACCs by a voltage-dependent mechanism
Emax (% inhibition), VACC inhibition [6]: 41 ± 4 % inhibition
IC50 [6]: 228 nM

CN1CC[C@]23c4c5ccc(O)c4O[C@H]2[C@@H](O)C=C[C@H]3[C@H]1C5 [Morphine, morphine]
rapid desensitization (loss of VACC inhibition) [1]: greater desensitization than NKTR-181
voltage-dependent component of VACC inhibition (VACCs in DRG neurons): predominantly inhibit VACCs by a voltage-dependent mechanism
Emax ([6]; Mus musculus, DRG neuron): 33 ± 6%

COc1ccc2c3c1O[C@H]1C(=O)CC[C@@]4(O)[C@@H](C2)N(C)CC[C@]314 [Oxycodone, oxycodone]
number of reinforcers obtained vs saline (drug-seeking behavior; 0.1 mg/kg/infusion): no difference
number of reinforcers obtained vs saline (drug-seeking behavior; 0.01 and 0.032 mg/kg/infusion): higher
total amount of drug infused over the hour-long session (drug-seeking behavior; across the three doses of each drug, rats): increase in the total amount of drug infused across all doses
rapid desensitization (loss of VACC inhibition) [1]: limited desensitization
reversal of carrageenan-induced hyperalgesia ([7]; 1 mg/kg i.pl., mice): did not reverse carrageenan-induced hyperalgesia
thermal withdrawal thresholds following i.pl. carrageenan ([7]; 3 mg/kg i.pl., mice): increased withdrawal thresholds following i.pl. carrageenan
time to reach peak levels of effect ([7]; antinociception / anti-hyperalgesia, carrageenan model, 10 min was the earliest timepoint measured): 10 min
sex difference in anti-hyperalgesia ([7]; higher dose (oxycodone 3 mg/kg, NKTR-181 100 mg/kg), male vs female mice): No sex differences were evident
conditioned place preference (drug preference; 1 mg/kg i.pl.): did not produce a place preference in either male or female mice
conditioned place preference (drug preference; 3 mg/kg i.pl.): produced a place preference in both sexes
Bias factor Gαi vs βarr1 (MOPr): −0.14 ± 0.07
Bias factor Gαi vs βarr2 (MOPr): 0.17 ± 0.08
Bias factor βarr1 vs βarr2 (MOPr): 0.32 ± 0.06
EC50 [2]: 389 nM
σ (transduction coefficient), β-arr1 recruitment [2]: 0.07 ± 0.05
Emax ([2]; HEK293, read-out: Emax, β-arr1 recruitment): 63.9 ± 0.8%
MOPr internalization, dose-dependence and comparison [3]: did not result in a dose-dependent effect and could not be curve-fitted at any timepoint
EC50 [4]: 355 nM
σ (transduction coefficient), Gαi recruitment [4]: 0.006 ± 0.07
Emax ([4]; HEK293, read-out: Emax, Gαi recruitment): 62.5 ± 0.9%
thermal withdrawal thresholds following i.pl. vehicle (thermal nociception): increased withdrawal thresholds following i.pl. vehicle
EC50 [5]: 100 nM
σ (transduction coefficient), β-arr2 recruitment [5]: −0.17 ± 0.05
voltage-dependent component of VACC inhibition (VACCs in DRG neurons): predominantly inhibit VACCs by a voltage-dependent mechanism
carrageenan-induced place aversion [8]: prevented place aversion
requirement of βarr1 for full VACC inhibition [9]: require βarr1 to obtain full VACC inhibition
dissociation half-life t1/2 [10]: 1.25 min
Emax ([6]; Mus musculus, DRG neuron): 34 ± 10%
IC50 ([6]; Mus musculus, DRG neuron): 1700 nM

[D-Ala^2, N-MePhe^4, Gly-ol]-enkephalin (peptide)
Emax (% inhibition) of VACCs in cultured adult mouse DRG neurons, whole-cell patch clamp [11]: 41 % inhibition
IC50 of inhibition of voltage-activated calcium channel currents (VACCs) in cultured adult mouse DRG neurons, whole-cell patch clamp [11]: 228 nM

B1: β-arrestin-1-Renilla Luciferase8 (natural protein, UniProt P49407 1-418, looked up)
chain: MGDKGTRVFKKASPNGKLTVYLGKRDFVDHIDLVDPVDGVVLVDPEYLKERRVYVTLTCAFRYGREDLDVLGLTFRKDLFVANVQSFPPAPEDKKPLTRLQERLIKKLGEHAYPFTFEIPPNLPCSVTLQPGPEDTGKACGVDYEVKAFCAENLEEKIHKRNSVRLVIRKVQYAPERPGPQPTAETTRQFLMSDKPLHLEASLDKEIYYHGEPISVNVHVTNNTNKTVKKIKISVRQYADICLFNTAQYKCPVAMEEADDTVAPSSTFCKVYTLTPFLANNREKRGLALDGKLKHEDTNLASSTLLREGANREILGIIVSYKVKVKLVVSRGGLLGDLASSDVAVELPFTLMHPKPKEEPPHREVPENETPVDTNLIELDTNDDDIVFEDFARQRLKGMKDDKEEEEDGTGSPQLNNR
notes: β-arrestin-1; BRET donor; also called βarr1; β-arr1; source: HEK293, transfected (FuGENE 6), in live cells
LogEC50 of the agonist DAMGO for the recruitment [12]: -6.94 ± 0.09 log M
LogEC50 of the agonist NKTR-181 for the recruitment [12]: -6.45 ± 0.12 log M
LogEC50 of the agonist fentanyl for the recruitment [12]: -8 ± 0.12 log M
LogEC50 of the agonist morphine for the recruitment [12]: -6.3 ± 0.18 log M
LogEC50 of the agonist oxycodone for the recruitment [12]: -6.41 ± 0.12 log M
